Among the data in PubChem BioAssay AID179 (DTP/NCI, 2004) are EC50, IC50 and outcome values, retold here.

This experiment deals with CEM cells HIV-1 protection, formazan growth assay. Put plainly: NCI AIDS Antiviral Assay. The conditions noted are these: for IC50: measured here: growth of uninfected CEM cells. The method in brief:
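Soluble formazan readout of cell growth; CEM cells ± HIV-1; 5 drug concs. ≥50% protection → retest; ≥50% again = moderately active; reproducible 100% = confirmed active.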

Activity calls are given as the source filed them.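 The calls were made as follows: active = compounds giving half or more protection of infected cells from virus-caused growth loss, again on retest; inactive = the rest.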

Consider `O=c1c(-c2ccccc2)c2n(c3ccccc13)CCN2`, for which the EC50 (usually the midpoint of the concentration-response curve) was over 200 µM and the IC50 (usually the concentration that gives 50% inhibition) was over 200 µM.

As for `N=C(/C=C/c1ccc(-c2cn3cc(/C=C/C(=N)N4CCOCC4)ccc3n2)cc1)N1CCOCC1`, the EC50 is 162 µM and the IC50 stood at 186 µM.

Regarding `CC/C=C/C(=O)CC(O)(C(F)(F)F)C(F)(F)F`, the EC50 was over 200 µM and the IC50 was over 200 µM.

Consider `CN(C)NC(=O)NC12CC3CC(CC(C3)C1)C2`, for which the outcome was inactive.

Consider `O=C(O)c1cc2c([nH]1)-c1cc(C(=O)O)c(C(=O)O)nc1C(=O)C2=O`, for which the result was inactive.

For `O=[N+]([O-])c1ccc(Cl)c(SSc2cc([N+](=O)[O-])ccc2Cl)c1`, the EC50 was over 39.8 µM and the IC50 was found to be 14.1 µM.

In the case of `O=c1ccn(C2OC(CN(O)CCC3C(O)C(CO)OC3n3ccc(=O)[nH]c3=O)C(O)C2O)c(=O)[nH]1` (centres undefined), the EC50 is over 200 µM and the IC50 is over 200 µM.

Turning to `COc1ccc(C2CC(=O)CC(c3ccc(OC)cc3)C23C(=O)CCCC3=O)cc1` (centres undefined), the EC50 was over 200 µM and the IC50 is over 200 µM.

As to `Cc1ccc(-c2n[nH]c(=O)[nH]2)cc1`, the EC50 was over 200 µM and the IC50 was over 200 µM.

For `O=C1c2c(O)cc(O)cc2OC(c2ccc(O)c(O)c2)C1O` (centres undefined), the EC50 is over 200 µM and the IC50 was over 200 µM.

Regarding `CC(=O)NC1c2ccccc2C(C)(C)C12CCC1(CC2)OCCO1` (centres undefined), the EC50 was over 200 µM and the IC50 is over 200 µM.

For `CCOC(=O)C(C)(C)Oc1ccc(N=[N+]=[N-])cc1`, the EC50 is over 200 µM and the IC50 was over 200 µM.

Take `O=C(c1cccc(Cl)c1)c1c(O)c2ccccc2oc1=O`: the outcome was inactive.

As to `CCOC(=O)CCC(NC(=O)OCc1ccccc1)C(=O)NC(CCC(=O)OCC)C(=O)NC(CCC(=O)OCC)C(=O)NNC(=O)OC(C)(C)C` (centres undefined), the EC50 was over 200 µM and the IC50 is over 200 µM.

Consider `[N-]=[N+]=C1C(=O)NCN=C1c1ccccc1`, for which the EC50 is over 339 µM and the IC50 is over 339 µM.

In the case of `Clc1ccccc1OCc1nc2ccccc2[nH]1`, the EC50 is over 200 µM and the IC50 was over 200 µM.

On to `CC(C)(C)C(=O)O[C@@H]1COC2C(O)COC21` (some centres undefined), for which the EC50 is over 1070 µM and the IC50 came to 977 µM.

Turning to `COC[C@@H]1[C@H]2OC(C)(C)O[C@H]2C(=O)N1C(=O)c1ccc(OC)cc1`, the EC50 is over 200 µM and the half-maximal inhibitory concentration (IC50) was over 200 µM.

For the compound `CCOC(=O)C(=Cc1ccc(C#N)cc1)C(=O)OCC`, the EC50 was over 132 µM and the IC50 was determined as 8.91 µM.

Regarding `CCOC(=O)c1sc(SC)nc1NC(=O)c1ccc(OC)cc1`, the EC50 was over 200 µM and the IC50 is over 200 µM.

Consider `Cc1cc(NS(=O)(=O)c2ccc(NC(=O)c3ccccc3SC(=O)CCCC[n+]3ccccc3)cc2)nc(C)n1`, for which the EC50 was 26.3 µM and the IC50 turned out to be 107 µM.

Turning to `CC(=O)/C(=C/N1CC(=O)NC1=S)C(=O)Nc1ccccc1C`, the EC50 is over 200 µM and the IC50 is over 200 µM.

Turning to `CC(C)CC(NC(=O)C(CSc1ccc([N+](=O)[O-])cc1)Cc1ccccc1)C(=O)Nc1ccccc1` (centres undefined), the EC50 was over 100 µM and the IC50 is over 100 µM.

Regarding `O=C1OCC2=Nc3cccc4cccc(c34)N12`, the EC50 is over 0.676 µM and the IC50 was found to be 0.331 µM.

As to `CCOc1nnc(C)o1`, the EC50 is over 1510 µM and the IC50 was over 1510 µM.

Consider `C[C@]12CCc3nn(-c4ccccc4)nc3C1CC[C@@H]1C2CC[C@]2(C)NC(=O)CCC12` (some centres undefined), for which the EC50 was over 23.4 µM and the IC50 is over 23.4 µM.

`N#C/C(=C\NC(=S)Nc1ccccc1Cl)C(=O)c1ccc2ccccc2c1`: the EC50 was over 200 µM and the IC50 is 141 µM.

`COC(=O)c1c2c(cc3c1CC1(C3)Cc3cc4c(c(C(=O)OC)c3C1)CCCC4)CCCC2`: the EC50 was over 200 µM and the 50% inhibitory concentration (IC50) is over 200 µM.

Consider `Cn1c(N)c2c3c(sc2nc1=O)CCCC3`, for which the EC50 is 77.6 µM and the IC50 was over 100 µM.

For `CC(C)(C=O)CC(C#N)/C(=N\NC(N)=O)C(=O)Nc1ccccc1C(N)=O` (centres undefined), the EC50 was over 676 µM and the IC50 was over 676 µM.

As to `O=C1CC(=O)NP(=O)(Oc2ccccc2)N1`, the EC50 was over 1050 µM and the IC50 is over 1050 µM.

Consider `[O-][n+]1onc2c1-c1nonc1CC2`, for which the EC50 is over 200 µM and the IC50 is 26.9 µM.

In the case of `c1ccc2c(c1)oc1cc3c(cc12)ncc1cccn13`, the EC50 is over 200 µM and the IC50 is over 200 µM.

As for `CCCC1(CC(=O)O)OCCc2c1[nH]c1ccccc21` (centres undefined), the EC50 is over 912 µM and the IC50 worked out at 457 µM.

Turning to `CCOC(=O)CNS(=O)(=O)c1ccccc1`, the EC50 was over 200 µM and the IC50 was over 200 µM.

Regarding `CC(=N/NC(=S)N1CCCCC1)/C(=N\NC(=S)N1CCCCC1)c1ccccc1`, the EC50 is over 200 µM and the IC50 worked out at 3.55 µM.

Turning to `CCCNC(=O)Cn1c(-c2ccccc2)cc2ccccc21`, the EC50 is over 200 µM and the IC50 was over 200 µM.

In the case of `CNc1nc(SC)nc2c1c(N)nn2C`, the EC50 is over 200 µM and the IC50 was over 200 µM.

`CCOC(=O)/C=C(/CN1C(=O)c2ccccc2C1=O)c1ccccc1`: the result was inactive.

For `CSCCC(NP(=S)(c1ccccc1)c1ccccc1)C(=O)O` (centres undefined), the EC50 is over 200 µM and the IC50 is over 200 µM.

For the compound `Cc1c2ccccc2nc(CS(=O)(=O)CCO)[n+]1[O-]`, the EC50 was over 200 µM and the IC50 was over 200 µM.

As for `O=C(O)CNc1c2ccccc2nc2ccccc12`, the result was inactive.

As to `COc1ccc2c(c1)OCc1c-2oc2ccccc2c1=O`, the EC50 was over 100 µM and the IC50 was over 100 µM.

`C[C@]12CCc3nonc3C1CC[C@@H]1C2CC[C@]2(C)C(=O)CCC12` (some centres undefined): the EC50 is over 83.2 µM and the IC50 was over 83.2 µM.

In the case of `COc1ccc(/C=C(\C(C)=O)C(=O)Nc2ccccc2)cc1`, the EC50 was over 17.8 µM and the IC50 is over 17.8 µM.

Turning to `COC(=O)c1cc(C(=O)O)c(=O)n2ccccc12`, the EC50 was over 200 µM and the IC50 stood at 174 µM.

For `COc1ccc(/C(C#N)=C(/N)SCc2ccccc2Cl)cc1`, the result was inactive.

`COc1ccc(C2OC(=O)c3ncccc32)cc1` (centres undefined): the EC50 was over 200 µM and the IC50 was over 200 µM.

In the case of `NC(=S)N/N=C/c1c(O)c2cc(Cl)ccc2[nH]c1=O`, the EC50 is over 200 µM and the IC50 is 93.3 µM.

In the case of `COc1ccc(-c2csc3c2-n2cccc2C3=O)cc1`, the EC50 is over 2 µM and the IC50 worked out at 0.0363 µM.

Take `CC1(C)C2CCC(C2)C1/C=C1/SC(=S)NC1=O` (centres undefined): the EC50 is over 200 µM and the IC50 came to 10 µM.

`O=C1OCCN1c1ccccc1`: the EC50 is over 1100 µM and the IC50 is over 1100 µM.

With `C[C@H]1[C@H](C)N1CC(O)Cn1ccnc1[N+](=O)[O-]` (some centres undefined), the EC50 was over 200 µM and the half-inhibitory concentration (IC50) was over 200 µM.

Consider `CCOC(=O)C(=O)Nc1ccc([N+](=O)[O-])cc1C#N`, for which the EC50 is over 355 µM and the IC50 was over 355 µM.

`Cc1ccc(-c2nnc(CCCCCCCCc3nnc(-c4ccc(C)cc4O)n3N)n2N)c(O)c1`: the EC50 was over 200 µM and the IC50 was found to be 120 µM.

In the case of `COc1ccc(/C=C(\C(=C/c2ccc(OC)cc2)[N+](=O)[O-])[N+](=O)[O-])cc1`, the EC50 is over 200 µM and the IC50 is 4.57 µM.

In the case of `N#Cc1ccc([N+](=O)[O-])cc1NC(N)=S`, the EC50 is over 224 µM and the IC50 was over 224 µM.

On to `Nc1ccccc1SC(/C=C/NNC1=NC(c2ccccc2)C(c2ccccc2)=NN1)c1ccccc1` (centres undefined), for which the EC50 is over 100 µM and the IC50 turned out to be 4.27 µM.

Take `Nc1ccc2c(C(F)(F)F)cc(=O)oc2c1`: the EC50 was over 22.9 µM and the IC50 was over 22.9 µM.

On to `O=C(O)Cn1ccc(=O)c2ccc([N+](=O)[O-])cc21`, for which the EC50 was over 200 µM and the IC50 was over 200 µM.

`CC1CC(N)=C(C#N)C1(C#N)C#N` (centres undefined): the EC50 was over 200 µM and the IC50 came to 138 µM.

Consider `COc1cccc2c1C1=CC(=O)CCC1C(C)(C)O2` (centres undefined), for which the EC50 is over 195 µM and the IC50 is 110 µM.

Turning to `CC1(C)CCC2(C(=O)OC3OC(CO)C(O)C(O)C3O)CCC3(CO)C(=CCC4C5(C)CC(O)C(O)C(C)(C(=O)OC6OC(CO)C(O)C(O)C6O)C5CCC43C)C2C1` (centres undefined), the outcome was inactive.

On to `Nc1sccc1S(=O)(=O)c1ccsc1N`, for which the EC50 was over 200 µM and the IC50 amounted to 87.1 µM.

For the compound `C[C@H]1CC[C@@]2(OC1)O[C@H]1C[C@H]3[C@@H]4CC[C@@H]5C[C@@H](OC6OC(CO)C(O)C(O)C6OC6OC(CO)C(O)C(O)C6O)CC[C@]5(C)[C@H]4CC[C@]3(C)[C@H]1[C@@H]2C` (some centres undefined), the EC50 was over 200 µM and the IC50 was found to be 5.25 µM.

For `COc1c2c(cc3c1[C@@H]1Oc4c(ccc(O)c4CC=C(C)C)[C@@H]1CO3)OC(C)(C)C=C2`, the EC50 was 2.24 µM and the IC50 is 23.4 µM.

Turning to `Cc1cc(-c2c(Br)cc(C(=O)O)n2C)on1`, the EC50 was over 200 µM and the IC50 is over 200 µM.

Take `COc1ccc(/C=c2\sc3n(c2=O)CCN=3)cc1`: the outcome was inactive.

`CC(=O)Nc1ccc(S(=O)(=O)c2ccc(NC(C)=O)cc2)cc1`: the EC50 is over 200 µM and the IC50 was over 200 µM.

Take `Oc1ccc(Cc2nc3ccccc3[nH]2)cc1`: the EC50 is over 200 µM and the IC50 is over 200 µM.

`O=C1C(c2ccccc2)=[N+]([O-])c2ccc(Cl)cc21`: the outcome was inactive.

On to `Cc1ccc(Cc2n[nH]c(=O)n2/N=C\CC/C=N\n2c(Cc3ccc(C)cc3)n[nH]c2=O)cc1`, for which the EC50 was over 200 µM and the IC50 came out at 120 µM.

Regarding `O=c1sc2ccccc2n1CCSSCCn1c(=O)sc2ccccc21`, the EC50 is over 200 µM and the IC50 was determined as 9.12 µM.

With `O=C1OC(=O)c2ccc3c4c(ccc1c24)C(=O)OC3=O`, the EC50 was over 933 µM and the IC50 was over 933 µM.
